In patent US6448442B1, “Contrast media” (Amersham Health AS, priority 1999, dated 2002):
Where two headings read alike, the source gives them in different places.

Columns and labels:
[1] = Viscosity in aqueous solution at 20° C. (Example 82, Tables 1 and 2); format: physicochemical; settings: for Viscosity 350 mgI/ml (CALCULATED): calculated for 350 mgI/ml; for Viscosity at 400 mgI/ml (CALCULATED): calculated for 400 mgI/ml
Description: The viscosities in aqueous solution at 20° C. for some further compounds described above were determined and are listed in Table 2. […]

[2] = Solubility (remark in Table 2); format: physicochemical; settings: aqueous solution, no viscosity given
[3] = Viscosity at 37° C. (Table 3); format: physicochemical; settings: for Viscosity at 350 mgI/ml (CALCULATED): calculated for 350 mgI/ml
[4] = Determination of viscosity (Example 121, flow time in syringe against reference sample); format: physicochemical; settings: 350 mgI/ml, 20° C.
Description: The apparatus consisted of a thermostated 10 μl graduated sample syringe connected to a conical shaped 100 μl sample vial. The syringe needle as well as a probe for temperature measurements (±0.2° C.) was inserted through an airtight septum at the top of the vial. Through the septum was also inserted a small tubing connected to an air syringe via a PTFE tubing.
To determine viscosity, 15≧75 μl of the sample liquid was placed at the bottom of the sample vial. The liquid was forced up into the sample syringe by a slight over pressure generated manually by the air syringe. When the syringe was almost filled, the over pressure was released so the liquid, forced only by gravity, could flow freely out from the syringe back into the vial. The time for the liquid surface to pass between the marks of e.g. 5 and 10 μl in the syringe was measured […]
The viscosity is calculated as follows: […]
ηS=Viscosity of the sample
ηR=Viscosity of a reference sample with known viscosity and with similar composition as the sample e.g. Iohexol or Iodixanol dS=Density of sample solution dR=Density of reference solution tS=Average time for sample surface to pass between two marks in the syringe tR=Corresponding time for reference sample
The results of these determinations of viscosity for various of the present Examples and two commercially available X-ray contrast media are shown in Table 1′ below. In all cases, the values refer to concentrations of 350 mgI/ml at a temperature of 20° C.

[5] = 350 mgI/ml, 20° C., data from literature; cited from earlier work

Compound | Viscosity 350 mgI/ml (CALCULATED) [1] [mPas] | Viscosity at 400 mgI/ml (CALCULATED) [1] [mPas] | Viscosity [4] [mPas] | further results
O=C(CO)N(CCO)c1c(I)c(CC(O)CO)c(I)c(N(CCO)C(=O)CO)c1I (stereo not shown) [Example 73, 3,5-Bis-[N,N′-(2-hydroxyethyl)-hydroxyacetamido]-2,4,6-triiodo-(2,3-dihydroxypropyl)benzene] | 6.7 | 10.4 | – | Viscosity 20° C. ([1]; concentration 396 mgI/ml): 10 mPas
O=C(CO)Nc1c(I)c(CC(O)CO)c(I)c(N(CC(O)CO)C(=O)CO)c1I (stereo not shown) [Example 74, 5-Hydroxyacetamido-3-[N-(2,3-dihydroxypropyl)-hydroxyacetamido]-2,4,6-triiodo-(2,3-dihydroxypropyl)benzene] | 9.3 | 15.8 | – | Viscosity 20° C. ([1]; concentration 399 mgI/ml): 16 mPas
O=C(CO)N(CC(O)CO)c1c(I)c(CC(O)CO)c(I)c(N(CC(O)CO)C(=O)CO)c1I (stereo not shown) [Example 75, 3,5-Bis-[N,N′-(2,3-dihydroxypropyl)-hydroxyacetamido]-2,4,6-triiodo-(2,3-dihydroxypropyl)benzene] | 14.6 | 28.4 | – | Viscosity 20° C. ([1]; concentration 359 mgI/ml): 16 mPas
OCc1cc(OCC(O)CO)c(I)c(OCC(O)CO)c1I (stereo not shown) [Example 78, 3,5-Bis-(2,3-dihydroxypropyloxy)-2,4-diiodobenzyl alcohol] | – | – | – | solubility [2]: low solubility
O=C(Nc1c(I)c(CO)c(I)c(NC(=O)C(O)C(O)CO)c1I)C(O)C(O)CO (stereo not shown) [Example 79, N,N′-Bis-(2,3,4-trihydroxybutanoyl)-3,5-diamino-2,4,6-triiodobenzyl alcohol] | 10.4 | 17.2 | – | Viscosity 20° C. ([1]; concentration 379 mgI/ml): 14.4 mPas; Viscosity 37° C. ([3]; 379 mgI/ml): 6.9 mPa·s; Viscosity at 350 mgI/ml (CALCULATED) [3]: 5.9 mPa·s
O=C(NCC(O)CO)c1c(I)c(CO)c(I)c(NC(=O)C(O)C(O)CO)c1I (stereo not shown) [Example 80, 5-[N′-(2,3,4-Trihydroxybutanoyl)amino]-3-hydroxymethyl-N-(2,3-dihydroxypropyl)-2,4,6-triiodobenzamide] | 9.4 | 14.8 | – | Viscosity 20° C. ([1]; concentration 444 mgI/ml): 23 mPas; Viscosity 37° C. ([3]; 444 mgI/ml): 11 mPa·s; Viscosity at 350 mgI/ml (CALCULATED) [3]: 5.2 mPa·s
O=C(NC(CO)C(O)CO)c1c(I)c(CO)c(I)c(NC(=O)C(O)C(O)CO)c1I (stereo not shown) [Example 81, 5-[N′-(2,3,4-Trihydroxybutanoyl)-amino]-3-hydroxymethyl-N-(1,3,4-trihydroxybut-2-yl)-2,4,6-triiodobenzamide] | 12.2 | 21.5 | – | Viscosity 20° C. ([1]; concentration 376 mgI/ml): 16.2 mPas; Viscosity 37° C. ([3]; 376 mgI/ml): 8.9 mPa·s; Viscosity at 350 mgI/ml (CALCULATED) [3]: 6.1 mPa·s
Nc1c(I)c(NC(=O)CO)c(I)c(C(O)C(=O)NC(=O)C(O)CO)c1I (stereo not shown) [Example 98, N-(2,3-Dihydroxypropionyl)-N′-hydroxyacetyl-3,5-diamino-2,4,6-triiodomandeloamide] | – | – | 6.9 | –
Nc1c(I)c(NC(=O)C(O)CO)c(I)c(C(O)C(=O)NC(=O)C(O)CO)c1I (stereo not shown) [Example 99, N,N′-Bis(2,3-Dihydroxypropionyl)-3,5-diamino-2,4,6-triiodomandeloamide] | – | – | 7.4 | –
NC(=O)C(O)c1c(I)c(NC(=O)[C@H](O)[C@@H](O)CO)c(I)c(NC(=O)[C@H](O)[C@@H](O)CO)c1I (stereo partly drawn) [Example 104, N,N′-Bis(2R,3S,4-trihydroxybutyryl)-3,5-diamino-2,4,6-triiodomandeloamide] | – | – | 17.0 | –
NC(=O)C(O)c1c(I)c(NC(=O)CO)c(I)c(NC(=O)[C@H](O)[C@H](O)CO)c1I (stereo partly drawn) [Example 106, N-(2R,3R,4-Trihydroxybutyryl)-N′-hydroxyacetyl-3,5-diamino-2,4,6-triiodomandeloamide] | – | – | 8.8 | –
CC1(C)OCC(CNC(=O)c2c(I)c(NC(=O)C3COC(C)(C)O3)c(I)c(C(C#N)O[Si](C)(C)C)c2I)O1 (stereo not shown) [Example 113, 5-(2,2-Dimethyl-1,3-dioxolane-4-carbamido)-3-(O-trimethylsilyl-cyanomethyl)-N-(2,2-dimethyl-1,3-dioxolane-4-methyl)-2,4,6-triiodobenzamide] | – | – | 7.5 | –
NC(=O)C(O)c1c(I)c(NC(=O)C(O)CO)c(I)c(C(=O)NCC(O)CO)c1I (stereo not shown) [Example 114, 5-(2,3-Dihydroxypropionyl)amino-3-N-(2,3-dihydroxypropyl)carbamido-2,4,6-triiodomandeloamide] | – | – | 10.1 | –
CN(C(=O)CO)c1c(I)c(C(=O)NCC(O)CO)c(I)c(C(=O)NCC(O)CO)c1I (stereo not shown) [Iomeprol] | – | – | – | Viscosity [5]: 15.4 mPas
N,N′-Bis(2,3-dihydroxybutyryl)-3,5-diamino-2,4,6-triiodomandeloamide [Example 101] | – | – | 13.4 | –
N-(2R,3S,4-Trihydroxybutyryl)-N′-hydroxyacetyl-3,5-diamino-2,4,6-triiodomandeloamide [Example 100] | – | – | 9.7 | –
